From US8741940B2, “Microbicidal composition” (Rohm and Haas Company, priority 2005, dated 2014)
Values joined by “and” are separate entries in the source; they are usually repeats but may differ in a detail not shown here. Identical values can stand only once. Like-named read-outs stand apart in the source and are kept apart here.

Key:
Assay type in all cases: cell-based
[1] = system: Escherichia coli (E. coli—ATCC #8739); assay: Synergy test, microtiter plate high resolution MIC assay, bacterium in M9GY medium; set-up: Qa (First Component A) / Qb (Second Component B): unit: ppm; conditions: for MIC of the component acting alone (QA / QB): E. coli 8739, M9GY, 30° C.
In short: (§1)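 High-resolution microtiter MICs spanned 2 to 10,000 ppm active, tested alongside varying BBIT or MBIT as component A. E. coli was run at ~5×10^6/mL in M9GY (0.2% glucose, 0.1% yeast extract) at 30 °C; C. albicans and A. niger at 5×10^5/mL in PDB. Synergy index is Qa/QA + Qb/QB, with >1 indicating antagonism.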

[2] = system: Candida albicans (C. albicans—ATCC 10231); assay: Synergy test, microtiter plate high resolution MIC assay, yeast in PDB medium; set-up: Qb (Second Component B) / Qa (First Component A): unit: ppm; conditions: for MIC of the component acting alone (QA / QB): C. albicans 10231, PDB, 25° C.
In short: as §1

[3] = system: Aspergillus niger (A. niger—ATCC 16404); assay: Synergy test, microtiter plate high resolution MIC assay, mold in PDB medium; set-up: Qb (Second Component B) / Qa (First Component A): unit: ppm
In short: as §1

[4] = A=MBIT, B=BBIT, E. coli 8739 - M9GY, 24 hours
[5] = A=MBIT, B=BBIT, C. albicans 10231 - PDB, 48 hours
[6] = A=MBIT, B=BBIT, A. niger 16404 - PDB, 4 days

CCCCn1sc2ccccc2c1=O [BBIT, N-(n-butyl)-1,2-benzisothiazolin-3-one]
Qa (First Component A) [1]: 200
SI (synergy index) [1]: 1.00
Qb (Second Component B) [1, 4]: 100
SI (synergy index) [1, 4]: 1.00
MIC of the component acting alone (QA / QB) ([1]; 24 hours): 200 ppm and 100 ppm
MIC of the component acting alone (QA / QB) ([1]; 48 hours): 100 ppm
MIC of the component acting alone (QA / QB) ([1]; 72 hours): 100 ppm
SI ([1]; E. coli 8739 - M9GY, 24 hours, BBIT + hexylene glycol): 1.00
Qa (First Component A = BBIT) ([1]; E. coli 8739 - M9GY, 24 hours, BBIT alone (Qb 0) or in mixture with hexylene glycol): 100
SI ([1]; E. coli 8739 - M9GY, 24 hours, BBIT with Pentylene glycol): 1.00
SI ([1]; E. coli 8739 - M9GY, 24 hours, BBIT with Potassium sorbate): 1.00
SI ([1]; E. coli 8739 - M9GY, 24 hours, BBIT with Propylparaben): 1.00
SI ([1]; E. coli 8739 - M9GY, 24 hours, BBIT with SDHA): 1.00
SI ([1]; E. coli 8739 - M9GY, 24 hours, BBIT with Sodium benzoate): 1.00
SI ([1]; E. coli 8739 - M9GY, 48 hours, BBIT + DTBMA): 1.00
SI ([1]; E. coli 8739 - M9GY, 48 hours, BBIT + hexamidine diisethionate): 1.00
Qa (First Component A = BBIT) ([1]; E. coli 8739 - M9GY, 48 hours, BBIT alone (Qb 0) or in mixture with DTBMA): 100
Qa (First Component A = BBIT) ([1]; E. coli 8739 - M9GY, 48 hours, BBIT alone (Qb 0) or in mixture with hexamidine diisethionate): 6
SI ([1]; E. coli 8739 - M9GY, 48 hours, BBIT with Phospholipid EFA): 1.00
SI ([1]; E. coli 8739 - M9GY, 72 hours, BBIT + DMDMH): 1.00
SI ([1]; E. coli 8739 - M9GY, 72 hours, BBIT + EDTA): 1.00
SI ([1]; E. coli 8739 - M9GY, 72 hours, BBIT + hexetidine): 1.00
Qa (First Component A = BBIT) ([1]; E. coli 8739 - M9GY, 72 hours, BBIT alone (Qb 0) or in mixture with DMDMH): 100
Qa (First Component A = BBIT) ([1]; E. coli 8739 - M9GY, 72 hours, BBIT alone (Qb 0) or in mixture with EDTA): 100
Qa (First Component A = BBIT) ([1]; E. coli 8739 - M9GY, 72 hours, BBIT alone (Qb 0) or in mixture with hexetidine): 80
SI ([1]; E. coli 8739 - M9GY, 72 hours, BBIT with Methylparaben): 1.00
SI ([1]; E. coli 8739 - M9GY, 72 hours, BBIT with Phenoxyethanol): 1.00
SI ([1]; E. coli 8739 - M9GY, 72 hours, BBIT with Phospholipid PTC): 1.00
SI ([1]; E. coli 8739 - M9GY, 72 hours, BBIT with Quaternium-15): 1.00
Qa (First Component A) [2]: 10
SI (synergy index) [2]: 1.00
Qb (Second Component B) [2, 5]: 6
SI (synergy index) [2, 5]: 1.00
MIC of the component acting alone (QA / QB) ([2]; 24 hours): 7.5 ppm and 6 ppm and 8 ppm
MIC of the component acting alone (QA / QB) ([2]; 48 hours): 10 ppm and 7.5 ppm and 8 ppm
SI ([2]; C. albicans 10231 - PDB, 24 hours, BBIT + DMDMH): 1.00
SI ([2]; C. albicans 10231 - PDB, 24 hours, BBIT + DTBMA): 1.00
SI ([2]; C. albicans 10231 - PDB, 24 hours, BBIT + EDTA): 1.00
SI ([2]; C. albicans 10231 - PDB, 24 hours, BBIT + hexamidine diisethionate): 1.00
SI ([2]; C. albicans 10231 - PDB, 24 hours, BBIT + hexylene glycol): 1.00
Qa (First Component A = BBIT) ([2]; C. albicans 10231 - PDB, 24 hours, BBIT alone (Qb 0) or in mixture with DMDMH): 7.5
Qa (First Component A = BBIT) ([2]; C. albicans 10231 - PDB, 24 hours, BBIT alone (Qb 0) or in mixture with DTBMA): 15
Qa (First Component A = BBIT) ([2]; C. albicans 10231 - PDB, 24 hours, BBIT alone (Qb 0) or in mixture with EDTA): 7.5
Qa (First Component A = BBIT) ([2]; C. albicans 10231 - PDB, 24 hours, BBIT alone (Qb 0) or in mixture with hexamidine diisethionate): 10
Qa (First Component A = BBIT) ([2]; C. albicans 10231 - PDB, 24 hours, BBIT alone (Qb 0) or in mixture with hexylene glycol): 10
SI ([2]; C. albicans 10231 - PDB, 24 hours, BBIT with Methylparaben): 1.00
SI ([2]; C. albicans 10231 - PDB, 24 hours, BBIT with Pentylene glycol): 1.00
SI ([2]; C. albicans 10231 - PDB, 24 hours, BBIT with Phenoxyethanol): 1.00
SI ([2]; C. albicans 10231 - PDB, 24 hours, BBIT with Phospholipid EFA): 1.00
SI ([2]; C. albicans 10231 - PDB, 24 hours, BBIT with Phospholipid PTC): 1.00
SI ([2]; C. albicans 10231 - PDB, 24 hours, BBIT with Potassium sorbate): 1.00
SI ([2]; C. albicans 10231 - PDB, 24 hours, BBIT with Propylparaben): 1.00
SI ([2]; C. albicans 10231 - PDB, 24 hours, BBIT with Quaternium-15): 1.00
SI ([2]; C. albicans 10231 - PDB, 24 hours, BBIT with SDHA): 1.00
SI ([2]; C. albicans 10231 - PDB, 48 hours, BBIT with Sodium benzoate): 1.00
SI ([2]; C. albicans 10231 - PDB, 72 hours, BBIT + hexetidine): 1.00
Qa (First Component A = BBIT) ([2]; C. albicans 10231 - PDB, 72 hours, BBIT alone (Qb 0) or in mixture with hexetidine): 15
Qa (First Component A) [3]: 40
SI (synergy index) [3]: 1.00
MIC of the component acting alone (QA / QB) ([3]; A. niger 16404, PDB, 4 days, 25° C.): 15 ppm
SI ([3]; A. niger 16404 - PDB, 3 days, BBIT + hexylene glycol): 1.00
Qa (First Component A = BBIT) ([3]; A. niger 16404 - PDB, 3 days, BBIT alone (Qb 0) or in mixture with hexylene glycol): 15
SI ([3]; A. niger 16404 - PDB, 3 days, BBIT with Methylparaben): 1.00
SI ([3]; A. niger 16404 - PDB, 3 days, BBIT with Phospholipid PTC): 1.00
SI ([3]; A. niger 16404 - PDB, 3 days, BBIT with Potassium sorbate): 1.00
SI ([3]; A. niger 16404 - PDB, 4 days, BBIT + hexetidine): 1.00
Qa (First Component A = BBIT) ([3]; A. niger 16404 - PDB, 4 days, BBIT alone (Qb 0) or in mixture with hexetidine): 20
SI ([3]; A. niger 16404 - PDB, 4 days, BBIT with Pentylene glycol): 1.00
SI ([3]; A. niger 16404 - PDB, 4 days, BBIT with Phospholipid EFA): 1.00
SI ([3]; A. niger 16404 - PDB, 4 days, BBIT with Quaternium-15): 1.00
SI ([3]; A. niger 16404 - PDB, 7 days, BBIT + DMDMH): 1.00
SI ([3]; A. niger 16404 - PDB, 7 days, BBIT + DTBMA): 1.00
SI ([3]; A. niger 16404 - PDB, 7 days, BBIT + EDTA): 1.00
Qa (First Component A = BBIT) ([3]; A. niger 16404 - PDB, 7 days, BBIT alone (Qb 0) or in mixture with DMDMH): 80
Qa (First Component A = BBIT) ([3]; A. niger 16404 - PDB, 7 days, BBIT alone (Qb 0) or in mixture with DTBMA): 40
Qa (First Component A = BBIT) ([3]; A. niger 16404 - PDB, 7 days, BBIT alone (Qb 0) or in mixture with EDTA): 40
SI ([3]; A. niger 16404 - PDB, 7 days, BBIT with Phenoxyethanol): 1.00
SI ([3]; A. niger 16404 - PDB, 7 days, BBIT with Propylparaben): 1.00
SI ([3]; A. niger 16404 - PDB, 7 days, BBIT with SDHA): 1.00
SI ([3]; A. niger 16404 - PDB, 7 days, BBIT with Sodium benzoate): 1.00
Qb (Second Component B) [3, 6]: 40
SI (synergy index) [3, 6]: 1.00
